The IC50 is the concentration at which inhibition is half-maximal. High values mean a need for much substance, low ones inhibition by little substance.

Structures are written as SMILES. Bounds are passed on as bounds.

The target of the experiment is T1, LIMK2 (Homo sapiens, UniProt P53671).
T1 construct: His tag (histidine-tagged; pFastBacHT vector); made in house; host or cells: Sf9 insect cells (BAC-to-BAC baculovirus system)
T1 sequence (P53671 whole entry): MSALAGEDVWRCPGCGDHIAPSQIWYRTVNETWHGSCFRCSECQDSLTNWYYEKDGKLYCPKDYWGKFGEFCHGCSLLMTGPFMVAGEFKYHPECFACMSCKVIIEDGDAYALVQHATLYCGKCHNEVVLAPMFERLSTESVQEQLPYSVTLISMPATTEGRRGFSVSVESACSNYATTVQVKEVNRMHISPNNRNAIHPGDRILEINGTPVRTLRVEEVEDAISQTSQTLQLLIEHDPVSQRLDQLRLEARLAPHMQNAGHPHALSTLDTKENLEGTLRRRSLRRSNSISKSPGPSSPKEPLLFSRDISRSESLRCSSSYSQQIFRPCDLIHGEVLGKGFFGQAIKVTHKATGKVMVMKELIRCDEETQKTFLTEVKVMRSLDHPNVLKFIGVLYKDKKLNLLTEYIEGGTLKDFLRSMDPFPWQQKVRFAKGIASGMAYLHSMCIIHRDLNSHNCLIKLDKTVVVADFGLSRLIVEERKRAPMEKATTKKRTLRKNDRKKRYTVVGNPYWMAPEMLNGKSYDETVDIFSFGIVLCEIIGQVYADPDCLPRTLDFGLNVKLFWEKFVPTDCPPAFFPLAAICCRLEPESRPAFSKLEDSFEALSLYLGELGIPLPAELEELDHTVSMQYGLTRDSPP
The experiment in a line: In vitro LIMK2 inhibition assay (33P incorporation into myelin basic protein flash plates). The experiment is classed as biochemical. The method, then: Using the procedures described herein and methods known in the art, the additional compounds listed below in Table 1 were prepared. The LIMK2 IC50 data that is provided below for some of the compounds was determined using the assay described in Example 32.
An in vitro assay used to identify LIMK2 inhibitors was developed. The analytical readout was the incorporation of ^33P from ATP substrate into immobilized myelin basic protein coated flash plates (Perkin Elmer Biosciences), which were counted on a scintillation counter equipped with a plate reader (TopCount, Packard Bioscience, Meriden, Conn.). Using 384 well flat MBP flashplates, total assay volume was 50 μl. The HTS program utilized a Biomek FX for dilution.
For each assay, the ingredients and conditions were as follows: 200 ng of enzyme was incubated in assay buffer (1× assay buffer contains 30 mM HEPES (pH 8.0), 5 mM DTT, and 10 mM MgCl2), 10 μM ATP, 0.2 μCi [gamma-^33P]-ATP and 10 μM of potential inhibitory compound. The reaction was incubated at room temperature for 60 minutes, washed 3 times with 75 μl of stop/wash buffer (1× stop/was buffer contains 50 mM EDTA and 20 mM Tris (pH 7.4)), and then the plates were read on the scintillation counter. Different concentrations of staurosporine (400 nM, 200 nM, 100 nM and 50 nM; purchased from BIOMOL (Plymouth Meeting, Pa.)) were used as controls on each plate.
Take `Cc1c[nH]c2ncnc(N3CCC(CCN4CCOCC4)(C(=O)Nc4cccc(OC(=O)N(C)C)c4)CC3)c12` [3-(1-(5-methyl-7H-pyrrolo[2,3-d]pyrimidin-4-yl)-4-(2-morpholinoethyl)piperidine-4-carboxamido)phenyl dimethylcarbamate]: the IC50 is less than 250 nM.
`Cc1c[nH]c2ncnc(N3CCC(C(=O)Nc4cccc(OC(=O)N(C)C)c4)(c4nn[nH]n4)CC3)c12` [3-(1-(5-methyl-7H-pyrrolo[2,3-d]pyrimidin-4-yl)-4-(2H-tetrazol-5-yl)piperidine-4-carboxamido)phenyl dimethylcarbamate] showed an IC50 of less than 250 nM.
`Cc1c[nH]c2ncnc(N3CCC(CNC(=O)N4CCOCC4)(C(=O)Nc4cccc(OC(=O)N(C)C)c4)CC3)c12` [3-(1-(5-methyl-7H-pyrrolo[2,3-d]pyrimidin-4-yl)-4-((morpholine-4-carboxamido)methyl)piperidine-4-carboxamido)phenyl dimethylcarbamate]: the IC50 was less than 250 nM.
On to `Cc1c[nH]c2ncnc(N3CCC(CNS(N)(=O)=O)(C(=O)Nc4cccc(OC(=O)N(C)C)c4)CC3)c12` [3-(1-(5-methyl-7H-pyrrolo[2,3-d]pyrimidin-4-yl)-4-((sulfamoylamino)methyl)piperidine-4-carboxamido)phenyl dimethylcarbamate], for which the IC50 is less than 250 nM.
Turning to `Cc1c[nH]c2ncnc(N3CCC(CNS(C)(=O)=O)(C(=O)Nc4cccc(OC(=O)N(C)C)c4)CC3)c12` [3-(1-(5-methyl-7H-pyrrolo[2,3-d]pyrimidin-4-yl)-4-(methylsulfonamidomethyl)piperidine-4-carboxamido)phenyl dimethylcarbamate], the IC50 is less than 250 nM.
With `Cc1c[nH]c2ncnc(N3CCC(CN4CCOCC4)(C(=O)Nc4cccc(OC(=O)N(C)C)c4)CC3)c12` [3-(1-(5-methyl-7H-pyrrolo[2,3-d]pyrimidin-4-yl)-4-(morpholinomethyl)piperidine-4-carboxamido)phenyl dimethylcarbamate] the figure was less than 250 nM.
Take `Cc1c[nH]c2ncnc(N3CCC(CNC(N)=O)(C(=O)Nc4cccc(OC(=O)N(C)C)c4)CC3)c12` [3-(1-(5-methyl-7H-pyrrolo[2,3-d]pyrimidin-4-yl)-4-(ureidomethyl)piperidine-4-carboxamido)phenyl dimethylcarbamate]: the IC50 was less than 250 nM.
With `CCCC1(C(=O)Nc2cccc(OC(=O)N(C)C)c2)CCN(c2ncnc3[nH]cc(C)c23)CC1` [3-(1-(5-methyl-7H-pyrrolo[2,3-d]pyrimidin-4-yl)-4-propylpiperidine-4-carboxamido)phenyl dimethylcarbamate], the concentration for half-maximal inhibition (IC50) is less than 250 nM.
`Cc1c[nH]c2ncnc(N3CCC(NCCOCc4ccccc4)(C(=O)Nc4cccc(OC(=O)N(C)C)c4)CC3)c12` [3-(4-(2-(benzyloxy)ethylamino)-1-(5-methyl-7H-pyrrolo[2,3-d]pyrimidin-4-yl)piperidine-4-carboxamido)phenyl dimethylcarbamate] had a 50% inhibitory concentration (IC50) of less than 250 nM.
In turn, `Cc1c[nH]c2ncnc(N3CCC(NCCNC(=O)OC(C)(C)C)(C(=O)Nc4cccc(OC(=O)N(C)C)c4)CC3)c12` [3-(4-(2-(tert-butoxycarbonylamino)ethylamino)-1-(5-methyl-7H-pyrrolo[2,3-d]pyrimidin-4-yl)piperidine-4-carboxamido)phenyl dimethylcarbamate] came in with an IC50 of less than 250 nM.
The result for `Cc1c[nH]c2ncnc(N3CCC(NCCN)(C(=O)Nc4cccc(OC(=O)N(C)C)c4)CC3)c12` [3-(4-(2-aminoethylamino)-1-(5-methyl-7H-pyrrolo[2,3-d]pyrimidin-4-yl)piperidine-4-carboxamido)phenyl dimethylcarbamate] reads less than 250 nM; that for `Cc1c[nH]c2ncnc(N3CCC(NCCO)(C(=O)Nc4cccc(OC(=O)N(C)C)c4)CC3)c12` [3-(4-(2-hydroxyethylamino)-1-(5-methyl-7H-pyrrolo[2,3-d]pyrimidin-4-yl)piperidine-4-carboxamido)phenyl dimethylcarbamate], less than 250 nM.

For the origin of these results see patent US8450332B2, “LIMK2 inhibitors, compositions comprising them, and methods of their use” (Lexicon Pharmaceuticals, Inc., priority 2008, dated 2013).
